Measurements reported in patent publication US9783505B2, “Substituted diaminopyrimidyl compounds, compositions thereof, and methods of treatment therewith” (Signal Pharmaceuticals, LLC, priority 2013, dated 2017).

target: T1, His-PKC-theta (Homo sapiens, UniProt Q04759); assay: PKC-theta Assay (384-well time resolved fluorescence, IMAP TR-FRET); assay type: biochemical; conditions: Table 2; read-out: Act. Level (IC50 in the PKC-theta Assay)
T1 construct: His; purchased Invitrogen
Procedure: PKC-theta Assay. A 384-well time resolved fluorescence assay was used to monitor PKC-theta activity. The PKC-theta assay was run in the following assay buffer: 50 mM HEPES pH 7.6, 10 mM MgCl2, 1 mM DTT, 0.01% Triton X-100, 0.01% BSA and 0.1 mM EDTA. To initiate the reaction, 200 nM of Fam-labeled S6-derived peptide (Molecular Devices) and 10 μM of ATP were mixed with 142 pM of His-PKC-theta (Invitrogen) for a total assay volume of 25 μL in each well. The assay was incubated at room temperature for 2 hours and terminated using a 60 μL/well mixture of Detection Binding Solution: 70% IMAP Progressive Binding Buffer A, 30% IMAP Progressive Binding Buffer B, 1:600 Progressive Binding Reagent, and 1:400 TR-FRET Tb Donor (Molecular Devices). The assay plates were then incubated overnight at room temperature and read on a Perkin-Elmer Envision Reader.

T1 sequence (Q04759 whole entry): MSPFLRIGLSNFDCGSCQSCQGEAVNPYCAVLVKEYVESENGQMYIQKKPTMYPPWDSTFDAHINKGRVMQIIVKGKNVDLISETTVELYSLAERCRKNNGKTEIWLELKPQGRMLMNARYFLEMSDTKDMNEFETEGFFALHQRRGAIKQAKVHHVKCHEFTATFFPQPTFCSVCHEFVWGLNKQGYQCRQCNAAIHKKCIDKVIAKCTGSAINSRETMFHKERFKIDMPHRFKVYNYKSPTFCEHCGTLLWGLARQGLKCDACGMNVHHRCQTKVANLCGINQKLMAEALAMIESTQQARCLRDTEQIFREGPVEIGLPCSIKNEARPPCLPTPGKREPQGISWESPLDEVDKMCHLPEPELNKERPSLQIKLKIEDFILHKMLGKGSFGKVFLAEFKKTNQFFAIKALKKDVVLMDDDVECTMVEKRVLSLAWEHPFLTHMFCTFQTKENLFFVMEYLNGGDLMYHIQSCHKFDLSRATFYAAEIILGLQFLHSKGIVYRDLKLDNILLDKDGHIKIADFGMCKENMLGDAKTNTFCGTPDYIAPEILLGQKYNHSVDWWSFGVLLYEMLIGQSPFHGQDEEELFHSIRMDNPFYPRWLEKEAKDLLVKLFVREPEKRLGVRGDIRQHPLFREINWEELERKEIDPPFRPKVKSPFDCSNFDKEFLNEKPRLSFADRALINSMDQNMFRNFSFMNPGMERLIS

IC50 [nM]	Compound
100 to 800	CC1(C)[C@@H](O)C[C@H]1Nc1nc(NCCc2cccc(C(F)(F)F)c2)ncc1C#N [Cmpd 45]
800 to 2000	CC1(C)[C@@H](O)C[C@H]1Nc1nc(NCCc2ccc(C(F)(F)F)cc2)ncc1C#N [Cmpd 46]
< 100	CC1(C)[C@@H](O)C[C@H]1Nc1nc(NCCc2ccc(-n3cccn3)cc2)ncc1C#N [Cmpd 48]
2000 to 10000	CC1(C)C[C@@H](Nc2nc(NCC(O)c3ccc(OC(F)F)cc3)ncc2C#N)CC[C@H]1O (stereo partly shown) [Cmpd 50]
100 to 800	CC1(C)C[C@H](Nc2nc(NCCc3ccc(OC4CCCC4)cc3)ncc2C#N)CC[C@@H]1O [Cmpd 51]
100 to 800	CC1(C)C[C@H](Nc2nc(NCCc3ccc(CN4CCCC4=O)cc3)ncc2C#N)CC[C@@H]1O [Cmpd 52]
100 to 800	CC1(C)C[C@H](Nc2nc(NCCc3ccc(OC(F)(F)F)cc3)ncc2C#N)CC[C@@H]1O [Cmpd 53]
800 to 2000	CC1(C)C[C@H](Nc2nc(NCCc3cc(C(F)(F)F)cc(C(F)(F)F)c3)ncc2C#N)CC[C@@H]1O [Cmpd 54]
100 to 800	CC1(C)C[C@H](Nc2nc(NCCc3ccccc3OC(F)(F)F)ncc2C#N)CC[C@@H]1O [Cmpd 55]
800 to 2000	CC(O)(CNc1ncc(C#N)c(N[C@@H]2CC[C@H](O)C(C)(C)C2)n1)c1ccccc1 (stereo partly shown) [Cmpd 56]
100 to 800	CC1(C)C[C@H](Nc2nc(NCCc3ccc(CO)cc3)ncc2C#N)CC[C@@H]1O [Cmpd 57]
800 to 2000	CC1(C)C[C@H](Nc2nc(NCCc3cccc(-c4ccccc4)c3)ncc2C#N)CC[C@@H]1O [Cmpd 58]
2000 to 10000	CN(C)C(=O)c1cccc(CCNc2ncc(C#N)c(N[C@@H]3CC[C@H](O)C(C)(C)C3)n2)c1 [Cmpd 61]
100 to 800	COCCOc1ccc(CCNc2ncc(C#N)c(N[C@@H]3CC[C@H](O)C(C)(C)C3)n2)cc1 [Cmpd 62]
100 to 800	CC1(C)C[C@H](Nc2nc(NCCc3ccc(S(C)(=O)=O)cc3)ncc2C#N)CC[C@@H]1O [Cmpd 63]
< 100	Cc1ncc(-c2ccc(CCNc3ncc(C#N)c(N[C@@H]4CC[C@H](O)C(C)(C)C4)n3)cc2)s1 [Cmpd 64]
100 to 800	CC1(C)C[C@H](Nc2nc(NCCc3ccc(S(N)(=O)=O)cc3)ncc2C#N)CC[C@@H]1O [Cmpd 65]
100 to 800	CC1(C)C[C@H](Nc2nc(NCC(=O)c3ccc(F)cc3F)ncc2C#N)CC[C@@H]1O [Cmpd 66]
100 to 800	CC1(C)C[C@H](Nc2nc(NCCc3ccccc3O)ncc2C#N)CC[C@@H]1O [Cmpd 67]

IC50 [nM]	Compound
100 to 800	N#Cc1cnc(NCCc2cccc(Cl)c2)nc1N[C@H]1CC[C@@H](O)CC1 [Cmpd 68]
800 to 2000	N#Cc1cnc(NCCc2cccc(Cl)c2)nc1N[C@H]1CC[C@H](O)CC1 [Cmpd 69]
800 to 2000	N#Cc1cnc(NCCc2cccc(Cl)c2)nc1N[C@H]1C[C@@H](O)C1 [Cmpd 70]
2000 to 10000	N#Cc1cnc(NCCc2cccc(Cl)c2)nc1N[C@H]1C[C@H](O)C1 [Cmpd 71]
800 to 2000	N#Cc1ccc(CCNc2ncc(C#N)c(N[C@H]3CC[C@@H](O)CC3)n2)cc1 [Cmpd 73]
< 100	CC1(C)[C@@H](CO)C[C@H]1Nc1nc(NCCc2cccc(Cl)c2)ncc1C#N [Cmpd 74]
800 to 2000	CC1(C)[C@H](CO)C[C@@H]1Nc1nc(NCCc2cccc(Cl)c2)ncc1C#N [Cmpd 75]
< 100	CC1(C)[C@H](CO)C[C@H]1Nc1nc(NCCc2cccc(Cl)c2)ncc1C#N [Cmpd 76]
2000 to 10000	CC1(C)[C@@H](CO)C[C@@H]1Nc1nc(NCCc2cccc(Cl)c2)ncc1C#N [Cmpd 77]
100 to 800	CC1(C)C[C@H](Nc2nc(NCCc3ccc(Oc4ccccc4)cc3)ncc2C#N)CC[C@@H]1O [Cmpd 79]
2000 to 10000	CC1(C)C[C@H](Nc2nc(NCC(O)c3ccc(O)cc3)ncc2C#N)CC[C@@H]1O (stereo partly shown) [Cmpd 80]
100 to 800	CC1(C)C[C@H](Nc2nc(NCC(=O)c3ccc(Cl)cc3)ncc2C#N)CC[C@@H]1O [Cmpd 81]
100 to 800	CC1(C)C[C@H](Nc2nc(NCCc3ccc(N4CCCCC4)cc3)ncc2C#N)CC[C@@H]1O [Cmpd 83]
100 to 800	CC1(C)[C@@H](O)C[C@H]1Nc1nc(NCCc2ccc(O)cc2)ncc1C#N [Cmpd 84]
100 to 800	COc1ccccc1CCNc1ncc(C#N)c(N[C@@H]2C[C@H](O)C2(C)C)n1 [Cmpd 85]
< 100	CC1(C)[C@@H](O)C[C@H]1Nc1nc(NCCc2cccc(Cl)c2)ncc1C#N [Cmpd 86]
< 100	CC1(C)C[C@H](Nc2nc(NCCc3cccc(Cl)c3F)ncc2C#N)CC[C@@H]1O [Cmpd 87]
< 100	CC1(C)C[C@H](Nc2nc(NCCc3ccc(F)c(Cl)c3)ncc2C#N)CC[C@@H]1O [Cmpd 88]
< 100	CC1(C)C[C@H](Nc2nc(NCCc3cc(Cl)ccc3F)ncc2C#N)CC[C@@H]1O [Cmpd 89]

same assay, conditions: read-out: Act. Level (IC50 in the PKC-theta Assay)

IC50 [nM]	Compound
< 100	CC1(C)C[C@H](Nc2nc(NCc3cncnc3-c3ccc(F)cc3)ncc2C(F)(F)F)CC[C@@H]1O [Cmpd 44]
< 100	Cc1cccc(Oc2ncncc2CNc2ncc(C#N)c(N[C@H]3CC[C@@H](O)CC3)n2)c1 [Cmpd 45]
< 100	C[C@]1(O)CC[C@@H](Nc2nc(NCc3cnccc3C(F)(F)F)ncc2C(F)(F)F)CC1 [Cmpd 46]
< 100	CC1(C)[C@@H](CO)C[C@H]1Nc1nc(NCc2c[n+]([O-])ccc2C(F)(F)F)ncc1C(F)(F)F [Cmpd 48]
< 100	CC(C)(F)c1ncncc1CNc1ncc(C#N)c(N[C@H]2CC[C@@](C)(O)CC2)n1 [Cmpd 50]
< 100	CC1(C)[C@H](CO)C[C@H]1Nc1nc(NCc2cnccc2C(F)(F)F)ncc1C#N [Cmpd 51]
< 100	N#Cc1cnc(NCc2cncnc2-c2ccccc2)nc1N[C@H]1CC[C@@H](O)CC1 [Cmpd 52]
< 100	CC1(C)[C@@H](CO)C[C@H]1Nc1nc(NCc2c[n+]([O-])ccc2C(F)(F)F)ncc1C#N [Cmpd 53]
< 100	CC(C)c1ncncc1CNc1ncc(C#N)c(N[C@@H]2C[C@H](CO)C2(C)C)n1 [Cmpd 54]
< 100	Cc1cc(C(F)(F)F)c(CNc2ncc(C(F)(F)F)c(N[C@@H]3CC[C@H](O)C(C)(C)C3)n2)c[n+]1[O-] [Cmpd 55]
< 100	CC(C)c1ncncc1CNc1ncc(C#N)c(N[C@H]2CC[C@@](C)(O)CC2)n1 [Cmpd 56]
< 100	CCOc1ncncc1CNc1ncc(C(F)(F)F)c(N[C@@H]2C[C@H](O)C2(C)C)n1 [Cmpd 57]
< 100	CCOc1ncncc1CNc1ncc(C#N)c(N[C@@H]2C[C@H](O)C2(C)C)n1 [Cmpd 58]
< 100	CC1(C)[C@@H](O)C[C@H]1Nc1nc(NCc2cncnc2C(F)(F)F)ncc1C#N [Cmpd 61]
< 100	COc1ncncc1CNc1ncc(C(F)(F)F)c(N[C@@H]2C[C@H](O)C2(C)C)n1 [Cmpd 62]
< 100	C[C@@H]1CC[C@H](Nc2nc(NCc3cnccc3C(F)(F)F)ncc2C(F)(F)F)C[C@H]1O [Cmpd 63]
< 100	CC1(C)[C@@H](CO)C[C@H]1Nc1nc(NCc2cnccc2C(F)(F)F)ncc1C#N [Cmpd 64]
< 100	CCc1ncncc1CNc1ncc(C#N)c(NC2CC(C)(O)C2(C)C)n1 (stereo not shown) [Cmpd 65]
< 100	CC1(C)[C@H](CO)C[C@H]1Nc1nc(NCc2cnccc2C(F)(F)F)ncc1C(F)(F)F [Cmpd 66]

IC50 [nM]	Compound
< 100	CCc1ncncc1CNc1ncc(C#N)c(N[C@@H]2C[C@H](O)C2(C)C)n1 [Cmpd 67]
< 100	CNC(=O)[C@H]1CC[C@@H](Nc2nc(NCc3cnccc3C(F)(F)F)ncc2C#N)CC1 [Cmpd 68]
< 100	O[C@H]1CC[C@@H](Nc2nc(NCc3cnccc3C(F)(F)F)ncc2C(F)(F)F)CC1 [Cmpd 69]
< 100	CC1(C)[C@@H](O)C[C@H]1Nc1nc(NCc2cncnc2-c2ccc(F)cc2)ncc1C(F)(F)F [Cmpd 70]
< 100	C[C@]1(O)CC[C@@H](Nc2nc(NCc3cnccc3C(F)(F)F)ncc2C#N)CC1 [Cmpd 71]
< 100	COC1CC(Nc2nc(NCc3cnccc3C(F)(F)F)ncc2C(F)(F)F)C1(C)C (stereo not shown) [Cmpd 74]
< 100	N#Cc1cnc(NCc2cnccc2C(F)(F)F)nc1N[C@H]1CC[C@@H](O)CC1 [Cmpd 75]
< 100	O[C@H]1CC[C@@H](Nc2nc(NCc3cncnc3-c3ccccc3)ncc2C(F)(F)F)CC1 [Cmpd 76]
< 100	CC1(C)C(Nc2nc(NCc3cncnc3OCCC(F)(F)F)ncc2C#N)C[C@H]1O (stereo partly shown) [Cmpd 77]
< 100	CC1(C)[C@@H](O)C[C@H]1Nc1nc(NCc2cncnc2-c2ccc(F)cc2)ncc1C#N [Cmpd 79]
< 100	C[C@]1(O)CC[C@@H](Nc2nc(NCc3cncnc3-c3ccccc3)ncc2C(F)(F)F)CC1 [Cmpd 80]
< 100	O[C@H]1CC[C@@H](Nc2nc(NCc3cncnc3C(F)(F)F)ncc2C(F)(F)F)CC1 [Cmpd 81]
< 100	CC1(C)[C@H](O)C[C@@H]1Nc1nc(NCc2cncnc2OCCC(F)(F)F)ncc1C(F)(F)F [Cmpd 83]
< 100	C[C@]1(O)CC[C@@H](Nc2nc(NCc3cncnc3-c3ccccc3)ncc2C#N)CC1 [Cmpd 84]
< 100	CC1(C)C(O)C[C@@H]1Nc1nc(NCc2cncnc2OCCC(F)(F)F)ncc1C(F)(F)F (stereo partly shown) [Cmpd 85]
< 100	C[C@]1(O)CC[C@@H](Nc2nc(NCc3cncnc3-c3ccc(F)cc3)ncc2C#N)CC1 [Cmpd 86]
< 100	C[C@@H]1CC[C@H](Nc2nc(NCc3cnccc3C(F)(F)F)ncc2C#N)C[C@H]1O [Cmpd 87]
< 100	CC(F)(F)COc1ncncc1CNc1ncc(C#N)c(NC2C[C@@H](O)C2(C)C)n1 (stereo partly shown) [Cmpd 88]
< 100	CC1(C)[C@H](O)C[C@@H]1Nc1nc(NCc2cncnc2OCCC(F)(F)F)ncc1C#N [Cmpd 89]
